# How the values were obtained:
# [1] = molecular target: T1, RORγt-LBD (Homo sapiens, UniProt P51449); experiment: Time-resolved fluorescence resonance energy-transfer assay (TR-FRET), co-activator peptide recruitment; format: biochemical; set-up: TR-FRET Biochemical Amax: unit not given here; conditions: for EC50: His-RORγt-LBD 30 nM, SRC peptide 500 nM, agonistic activity, averages of one or more measurements, read-out: TR-FRET Biochemical EC50/; for TR-FRET Biochemical Amax: upper activation limit, His-RORγt-LBD, SRC peptide
# T1 sequence (P51449 269-508 limits assumed): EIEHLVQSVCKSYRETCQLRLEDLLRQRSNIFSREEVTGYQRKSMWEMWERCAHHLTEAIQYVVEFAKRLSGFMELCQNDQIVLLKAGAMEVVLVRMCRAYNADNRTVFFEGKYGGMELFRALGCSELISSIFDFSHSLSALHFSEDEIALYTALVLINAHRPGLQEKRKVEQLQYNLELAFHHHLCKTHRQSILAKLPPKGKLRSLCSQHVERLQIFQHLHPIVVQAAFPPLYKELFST
# Summary of the method: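 This agonist-mode TR-FRET used 30 nM His-tagged RORγt-LBD, 500 nM biotinylated SRC peptide, 0.25 nM Eu-anti-His and 5 nM APC-streptavidin in pH 7.0 Tris/KCl buffer with DTT and Triton. A 7-concentration, 5-fold compound series was incubated at 4 °C overnight plus 1 h at room temperature, and the 665/615 nm signal was read.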
# [2] = molecular target: T2, RORγt (Homo sapiens, UniProt P51449); experiment: RORγt cellular reporter gene detection assay; format: cell-based; conditions: 24 hrs; for EC50: HEK 293 cells co-transfected with pFN26A-RORγt-LBD and pG14.35, in presence of antagonist Ursolic acid, top concentration 50 μM; for Cellular Reporter Assay Amax: upper activation limit, HEK 293 cells, in presence of antagonist Ursolic acid;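 for Cellular Reporter Assay Amax: Ursolic Acid added as 5 µL of 20 µM medium per well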
# T2 construct: The plasmid of pFN26A-RORγt-LBD and pG14.35 (Promega, Cat. No. E1370) were co-transfected into HEK 293 cells; expressed in transfected cells; host or cells: HEK 293 cells (Cat. No. GNHu18)
# T2 sequence (P51449 269-508 limits assumed): T1 sequence (P51449 269-508 limits assumed)
# Summary of the method: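 Compounds, titrated 4-fold from a 50 μM top concentration, were added with Ursolic acid to HEK293 cells carrying a RORγt-LBD plasmid and a reporter plasmid. After 24 h at 37° C, dual firefly/Renilla luciferase readout; four-parameter curves gave EC50 and maximal activation (Amax).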
SMILES,EC50 [1] [nM],TR-FRET Biochemical Amax [1],EC50 [2] [nM],Cellular Reporter Assay Amax [2]
"O=S(=O)(c1cccc(C(F)(F)F)c1)N1C[C@@H]2CN(C(CO)CO)CCN2c2ccc(-c3cc(F)cc(OC(F)F)c3)cc21 [Example 70, (S)-2-(8-(3-(difluoromethoxy)-5-fluorophenyl)-6-((3-(trifluorometh-yl)phenyl)sulfonyl)-1,2,4,4a,5,6-hexahydro-3H-pyrazino[1,2-a]quinoxalin-3-yl)propane-1,3-diol]",64.2,0.99,531,4.2
"C/C(=C\c1ccc2c(c1)N(S(=O)(=O)c1cccc(C(F)(F)F)c1)C[C@@H]1CN(C(C)(CO)CO)CCN21)c1c(F)cccc1Cl [Example 71, (S,E)-2-(8-(2-(2-chloro-6-fluorophenyl)prop-1-en-1-yl)-6-((3-(trifluoromethyl)phenyl)sulfonyl)-1,2,4,4a,5,6-hexahydro-3H-pyrazino[1,2-a]quinoxalin-3-yl)-2-methylpropane-1,3-diol]",40.5,0.97,498,3.5
"CC(CO)(CO)N1CCN2c3ccc(-c4cc(F)cc(OC(F)F)c4)cc3N(S(=O)(=O)c3cccc(C(F)(F)F)c3)C[C@@H]2C1 [Example 72, (S)-2-(8-(3-(difluoromethoxy)-5-fluorophenyl)-6-((3-(trifluoro-methyl)phenyl)sulfonyl)-1,2,4,4a,5,6-hexahydro-3H-pyra-zino[1,2-a]quinoxalin-3-yl)-2-methylpropane-1,3-diol]",42.3,0.65,238,2.6
"C/C(=C\c1ccc2c(c1)N(S(=O)(=O)c1cccc(C(F)(F)F)c1)C[C@@H]1CN(C(C#N)(CO)CO)CCN21)c1c(F)cccc1Cl [Example 73, (S,E)-2-(8-(2-(2-chloro-6-fluorophenyl)prop-1-en-1-yl)-6-((3-(trifluoromethyl)phenyl)sulfonyl)-1,2,4,4a,5,6-hexahydro-3H-pyrazino[1,2-a]quinoxalin-3-yl)-3-hydroxy-2-(hydroxynethyl)propanenitrile]",40,0.96,725,4.6
"N#CC(CO)(CO)N1CCN2c3ccc(-c4cc(F)cc(OC(F)F)c4)cc3N(S(=O)(=O)c3cccc(C(F)(F)F)c3)C[C@@H]2C1 [Example 74, (S)-2-(8-(3-(difluoromethoxy)-5-fluorophenyl)-6-((3-(trifluoromethyl)phenyl)sulfonyl)-1,2,4,4a,5,6-hexahydro-3H-pyrazino[1,2-a]quinoxalin-3-yl)-3-hydroxy-2-(hydroxymethyl)propanenitrile]",45.1,1.20,1040,6.2
"C/C(=C\c1ccc2c(c1)N(S(=O)(=O)c1cccc(C(F)(F)F)c1)C[C@@H]1CN(C(CO)(CO)C(N)=O)CCN21)c1c(F)cccc1Cl [Example 75, (S,E)-2-(8-(2-(2-chloro-6-fluorophenyl)prop-1-en-1-yl)-6-((3-(trifluoromethyl)phenyl)sulfonyl)-1,2,4,4a,5,6-hexahydro-3H-pyrazino[1,2-a]quinoxalin-3-yl)-3-hydroxy-2-(hydroxymethyl)propanamide]",55.7,0.87,1190,3.7
"C/C(=C\c1ccc2c(c1)N(S(=O)(=O)c1cccc(C(F)(F)F)c1)C[C@@H]1CN(C3(C#N)CCC3)CCN21)c1c(F)cccc1Cl [Example 76, (S,E)-1-(8-(2-(2-chloro-6-fluorophenyl)prop-1-en-1-yl)-6-((3-(trifluoromethyl)phenyl)sulfonyl)-1,2,4,4a,5,6-hexahydro-3H-pyrazino[1,2-a]quinoxalin-3-yl)cyclobutane-1-carbonitrile]",6.54,0.99,1180,3.2
"N#CC1(N2CCN3c4ccc(-c5cc(F)cc(OC(F)F)c5)cc4N(S(=O)(=O)c4cccc(C(F)(F)F)c4)C[C@@H]3C2)CCC1 [Example 77, (S)-1-(8-(3-(difluoromethoxy)-5-fluorophenyl)-6-((3-(trifluoro-methyl)phenyl)sulfonyl)-1,2,4,4a,5,6-hexahydro-3H-pyra-zino[1,2-a]quinoxalin-3-yl)cyclo-butane-1-carbonitrile]",18.3,0.95,1470,3.7
"N#CC1(N2CCN3c4ccc(/C=C/c5c(Cl)cccc5C(F)(F)F)cc4N(S(=O)(=O)c4cccc(C(F)(F)F)c4)C[C@@H]3C2)CCC1 [Example 78, (S,E)-1-(8-(2-chloro-6-(trifluoro-methyl)styryl)-6-((3-(trifluoro-methyl)phenyl)sulfonyl)-1,2,4,4a,5,6-hexahydro-3H-pyra-zino[1,2-a]quinoxalin-3-yl)cyclo-butane-1-carbonitrile]",5.2,0.67,822,2.4
"C/C(=C\c1ccc2c(c1)N(S(=O)(=O)c1cccc(C(F)(F)F)c1)C[C@@H]1CN(C3(C(N)=O)CCC3)CCN21)c1c(F)cccc1Cl [Example 79, (S,E)-1-(8-(2-(2-chloro-6-fluorophenyl)prop-1-en-1-yl)-6-((3-(trifluoromethyl)phenyl)sulfonyl)-1,2,4,4a,5,6-hexahydro-3H-pyrazino[1,2-a]quinoxalin-3-yl)cyclobutane-1-carboxamide]",28.2,1.15,267,2.8
"NC(=O)C1(N2CCN3c4ccc(-c5cc(F)cc(OC(F)F)c5)cc4N(S(=O)(=O)c4cccc(C(F)(F)F)c4)C[C@@H]3C2)CCC1 [Example 80, (S)-1-(8-(3-(difluoromethoxy)-5-fluorophenyl)-6-((3-(trifluoro-methyl)phenyl)sulfonyl)-1,2,4,4a,5,6-hexahydro-3H-pyrazino[1,2-a]quinoxalin-3-yl)cyclobutane-1-carboxamide]",39.3,1.04,209,3.4
"NC(=O)C1(N2CCN3c4ccc(/C=C/c5c(Cl)cccc5C(F)(F)F)cc4N(S(=O)(=O)c4cccc(C(F)(F)F)c4)C[C@@H]3C2)CCC1 [Example 81, (S,E)-1-(8-(2-chloro-6-(trifluoro-methyl)styryl)-6-((3-(trifluoro-methyl)phenyl)sulfonyl)-1,2,4,4a,5,6-hexa-hydro-3H-pyrazino[1,2-a]quinoxalin-3-yl) cyclobutane-1-carboxamide]",21.2,1.19,355,4.0
"C/C(=C\c1ccc2c(c1)N(S(=O)(=O)c1cccc(C(F)(F)F)c1)C[C@@H]1CN(CC(C)(C)O)CCN21)c1c(F)cccc1Cl [Example 82, (S,E)-1-(8-(2-(2-chloro-6-fluorophenyl)prop-1-en-1-yl)-6-((3-(trifluoromethyl)phenyl)sulfonyl)-1,2,4,4a,5,6-hexahydro-3H-pyrazino[1,2-a]quinoxalin-3-yl)-2-methylpropan-2-ol]",28.1,1.09,394,4.5
"O=C(O)CN1CCN2c3ccc(/C=C/c4c(Cl)cccc4C(F)(F)F)cc3N(S(=O)(=O)c3cccc(C(F)(F)F)c3)C[C@H]2C1 [Example 83, (R,E)-2-(8-(2-chloro-6-(trifluoromethyl)styryl)-6-((3-(trifluoromethyl)phenyl)sulfonyl)-1,2,4,4a,5,6-hexahydro-3H-pyrazino[1,2-a]quinoxalin-3-yl)acetic acid]",28.9,0.98,979,7.0
"CC(=O)N1CCN2c3ccc(/C=C/c4c(Cl)cccc4C(F)(F)F)cc3N(S(=O)(=O)c3cccc(OC(F)(F)F)c3)C[C@@H]2C1 [Example 84, (S,E)-1-(8-(2-chloro-6-(trifluoromethyl)styryl)-6-((3-(trifluoromethoxy)phenyl)sulfonyl)-1,2,4,4a,5,6-hexahydro-3H-pyrazino[1,2-a]quinoxalin-3-yl)ethan-1-one]",207,0.76,1140,4.7
"COC(=O)CN1CCN2c3ccc(/C=C/c4c(Cl)cccc4C(F)(F)F)cc3N(S(=O)(=O)c3cccc(OC(F)(F)F)c3)C[C@@H]2C1 [Example 85, methyl (S,E)-2-(8-(2-chloro-6-(trifluoromethyl)styryl)-6-((3-(trifluoromethoxy)phenyl)sulfonyl)-1,2,4,4a,5,6-hexahydro-3H-pyrazino[1,2-a]quinoxalin-3-yl) acetate]",75.4,1.01,279,1.8

# Reference: US20220009894A1, “1,2,3,4-TETRAHYDROQUINOXALINE DERIVATIVE, PREPARATION METHOD THEREFOR AND APPLICATION THEREOF” (Abbisko Therapeutics Co., Ltd., priority 2019, published 2022)
